Data: ChEMBL document CHEMBL5604063, “ASAP - DENV-2 NS2B-NS3 protease fluorescence dose response” (2024)
Several values for one entry are separate records, joined by “and”; a condition that tells them apart may be missing. Identical values can stand only once.

How the values were obtained:
Genome polyprotein [1] = target: T1, Genome polyprotein (dengue virus type 2, UniProt P29990); type: functional, Thailand/16681/1984
Genome polyprotein [2] = target: T1, Genome polyprotein; type: functional, Thailand/16681/1984; remark: listed apart in the source

T1 sequence (P29990 1346-1475 limits assumed): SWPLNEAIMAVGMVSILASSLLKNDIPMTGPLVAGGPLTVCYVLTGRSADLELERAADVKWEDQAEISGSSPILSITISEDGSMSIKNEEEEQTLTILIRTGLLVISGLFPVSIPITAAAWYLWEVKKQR
T1 sequence (P29990 1476-2093 limits assumed): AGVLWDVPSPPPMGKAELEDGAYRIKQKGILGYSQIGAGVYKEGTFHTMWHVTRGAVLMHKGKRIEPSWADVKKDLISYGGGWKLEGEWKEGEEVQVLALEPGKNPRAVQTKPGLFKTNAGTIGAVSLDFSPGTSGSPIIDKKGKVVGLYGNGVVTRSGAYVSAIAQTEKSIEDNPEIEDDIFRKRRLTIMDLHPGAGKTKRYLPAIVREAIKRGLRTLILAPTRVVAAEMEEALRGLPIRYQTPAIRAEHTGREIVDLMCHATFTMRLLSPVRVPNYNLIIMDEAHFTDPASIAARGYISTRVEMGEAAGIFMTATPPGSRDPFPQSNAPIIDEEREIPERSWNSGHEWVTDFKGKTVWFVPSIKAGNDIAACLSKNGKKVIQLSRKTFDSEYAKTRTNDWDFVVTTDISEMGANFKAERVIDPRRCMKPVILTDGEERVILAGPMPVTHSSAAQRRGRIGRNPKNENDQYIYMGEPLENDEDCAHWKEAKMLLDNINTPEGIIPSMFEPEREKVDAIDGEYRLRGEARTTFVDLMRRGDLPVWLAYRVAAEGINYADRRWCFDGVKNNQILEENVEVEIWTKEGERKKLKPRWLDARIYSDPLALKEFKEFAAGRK

Structure (SMILES) | IC50 (Genome polyprotein [1]) | IC50 (Genome polyprotein [2])
Brc1csc(CNCCc2nnc[nH]2)c1 | > 99.5 µM | > 100 µM
NCc1cccc(NC(=O)c2cc(Cl)cc3c2cnn3CC2CC2)c1 | > 99.5 µM | > 100 µM
NCc1cccc(NC(=O)c2cc(Cl)cc(Cl)c2)c1 | > 99.5 µM | > 100 µM
C[C@H]1CCC[C@H](C(=O)Nc2cccc(CN)c2)O1 | > 99.5 µM | > 100 µM
NCc1cccc(NC(=O)[C@H]2C[C@@H](C(F)(F)F)C[C@@H](C(F)(F)F)C2)c1 | > 99.5 µM | > 100 µM
Cn1cncc1COc1cccc([C@H](NC(=O)OCc2ccccc2)C(=O)Nc2cccc(CN)c2)c1 | 66 µM | > 100 µM
CS(=O)(=O)N(c1cc(Cl)cc(C(=O)Nc2cccc(CN)c2)c1)S(C)(=O)=O | > 99.5 µM | > 100 µM
Cc1ccc(S(=O)(=O)N2Cc3ccccc3C[C@@H](C(=O)Nc3cccc(CN)c3)C2)cc1 | 75.2 µM | > 100 µM
O=C(N[C@H]1[C@H]2CCCCC[C@H]2[C@H]1C(=O)Nc1cccc(C2CCNCC2)c1)OCc1ccccc1 | 17.9 µM and 53 µM | 32.7 µM
NCCc1ccc(NC(=O)c2cc(Cl)cc(CN)c2)cc1 | > 99.5 µM | > 100 µM
COCC=Cc1cccc([C@@H](NC(=O)OCc2ccccc2)C(=O)Nc2cccc(CN)c2)c1 | 56.9 µM | > 100 µM
NCc1cccc(NC(=O)c2cc(N)cc(Cl)c2)c1 | > 99.5 µM | > 100 µM
c1cncc(CN2CC[C@H](NCc3c[nH]c4ccccc34)C2)c1 | > 99.5 µM | > 100 µM
O=C(Nc1cc(Cl)cc(C(=O)Nc2cccc(-c3cc[nH]n3)c2)c1)OCc1ccccc1 | > 99.5 µM | > 100 µM
OCCCCCc1nc(-c2ccc(Br)o2)no1 | > 99.5 µM | > 100 µM
NCCc1cc(Cl)cc(C(=O)Nc2cccc(CN)c2)c1 | > 99.5 µM | > 100 µM
Cn1cc([C@@H]2C[C@H](C(=O)Nc3cccc(CN)c3)CC(=O)N2)cn1 | > 99.5 µM | > 100 µM
NCc1cccc(NC(=O)[C@@H](NC(=O)OCc2ccccc2)c2cccc(-c3ccc(CN)cc3F)c2)c1 | > 99.5 µM | > 100 µM
O=C(NCCc1nc2ccccc2[nH]1)c1cc2ccc(F)cc2s1 | > 99.5 µM | > 100 µM
Cc1cc(C(=O)Nc2cccc(CN)c2)nc(C)n1 | > 99.5 µM | > 100 µM
CCc1cc(NC(=O)OCc2ccccc2)cc(C(=O)Nc2cccc(CN)c2)c1 | > 99.5 µM | > 100 µM

Structure (SMILES) | IC50 (Genome polyprotein [1]) | IC50 (Genome polyprotein [2])
Cc1cc(C(=O)Nc2cccc(CN)c2)c2c(C)nn(CC(=O)NC(C)C)c2n1 | > 99.5 µM | > 100 µM
N[C@@H](CCO)c1cccc(NC(=O)c2cc(Cl)cc(NC(=O)OCc3ccccc3)c2)c1 | > 99.5 µM | > 100 µM
CN(C)[C@@H]1CCC[C@@H](C(=O)Nc2cccc(CN)c2)C1 | > 99.5 µM | > 100 µM
C[C@@H](N)c1cccc(NC(=O)[C@H]2[C@H]3CCCCC[C@H]3[C@H]2NC(=O)OCc2ccccc2)c1 | 13.5 µM and 13.8 µM | 29 µM
Cc1cc(C(=O)Nc2cccc(CN)c2)cc(O)n1 | > 99.5 µM | > 100 µM
Cc1ccc(S(=O)(=O)CCCn2ccc3sccc3c2=O)cc1 | > 99.5 µM | > 100 µM
COc1ccc(-c2cccc([C@@H](NC(=O)OCc3ccccc3)C(=O)Nc3cccc(CN)c3)c2)cn1 | > 99.5 µM | > 100 µM
c1coc(CSCc2nc(-c3nc[nH]n3)no2)c1 | > 99.5 µM | > 100 µM
NCc1cccc(NC(=O)[C@@H]2[C@H](N)[C@@H]3CCCCC[C@@H]32)c1 | > 99.5 µM | > 100 µM
Cn1cc(NC(=O)c2cc(Cl)cc(NC(=O)OCc3ccccc3)c2)cn1 | > 99.5 µM | > 100 µM
NCc1cccc(CNC(=O)[C@H]2[C@H]3CCCCC[C@H]3[C@H]2NC(=O)OCc2ccccc2)c1 | 14.4 µM and 63.2 µM and 44.4 µM | 80.3 µM
NCc1cccc(NC(=O)[C@@H]2CCC[C@]3(CCNC3=O)C2)c1 | > 99.5 µM | > 100 µM
COC(=O)c1cc(NC(=O)OCc2ccccc2)cc(C(=O)Nc2cccc(CN)c2)c1 | > 99.5 µM | > 100 µM
NCc1cccc(NC(=O)c2c(F)c(Cl)cc(NC(=O)OCc3ccccc3)c2F)c1 | > 99.5 µM | > 100 µM
O=C(Nc1cc(Cl)cc(C(=O)Nc2nccc([C@H]3CCCCN3)n2)c1)OCc1ccccc1 | > 99.5 µM | > 100 µM
CC(C)[C@@H]1CC[C@@H](C)C[C@H]1C(=O)Nc1cccc(CN)c1 | > 99.5 µM | > 100 µM
NCc1cccc(NC(=O)c2cc(Cl)cc(C(N)=O)c2)c1 | > 99.5 µM | > 100 µM
NCc1cccc(NC(=O)[C@@]23CCC[C@H](C2)N3C(=O)OCc2ccccc2)c1 | > 99.5 µM | > 100 µM
CN(C)Cc1ccc(NC(=O)c2cc(Cl)cc(NC(=O)OCc3ccccc3)c2)cc1 | > 99.5 µM | > 100 µM
NCc1ccc(NC(=O)[C@H]2[C@H]3CCCCC[C@H]3[C@H]2NC(=O)OCc2ccccc2)cc1 | 57.4 µM | > 100 µM
NCc1cccc(NC(=O)[C@@H]2CCC[C@H](OC(F)(F)F)C2)c1 | > 99.5 µM | > 100 µM

Structure (SMILES) | IC50 (Genome polyprotein [1]) | IC50 (Genome polyprotein [2])
Cc1cc(C(=O)Nc2cccc(CN)c2)cc(NCC(F)(F)F)n1 | > 99.5 µM | > 100 µM
NCc1cccc(NC(=O)[C@H](NC(=O)OCc2ccccc2)c2cccc(-c3ccc4c(c3)CC(=O)N4)c2)c1 | 16.2 µM and 7.19 µM | > 100 µM
Cc1cc(C(=O)Nc2cccc(CN)c2)c2nc(C)n(C)c2n1 | > 99.5 µM | > 100 µM
Cc1cc(C)c([C@@H](CC(=O)Nc2cccc(CN)c2)NC(=O)OCc2ccccc2)cc1C | 7.12 µM and 7.23 µM | 11.6 µM
Cn1cc(-c2cccc([C@@H](NC(=O)OCc3ccccc3)C(=O)Nc3cccc(CN)c3)c2)ccc1=O | > 99.5 µM | > 100 µM
CC(F)(F)c1cccc(NC(=O)c2cc(Cl)cc(NC(=O)OCc3ccccc3)c2)c1 | > 99.5 µM | > 100 µM
O=C(Nc1cc(Cl)cc(C(=O)Nc2cccc(-c3nnn[nH]3)c2)c1)OCc1ccccc1 | 13.6 µM | 11.1 µM and 11 µM
C[C@@H]1C[C@@H](C(=O)Nc2cccc(CN)c2)CCO1 | > 99.5 µM | > 100 µM
CN(C)[C@@H]1CCC[C@H](C(=O)Nc2cccc(CN)c2)C1 | > 99.5 µM | > 100 µM
C[C@@H]1CCC[C@H](C(=O)Nc2cccc(CN)c2)O1 | > 99.5 µM | > 100 µM
NCc1cccc(NC(=O)c2cc(Br)cc3[nH]ccc23)c1 | > 99.5 µM | > 100 µM
Cc1cc(C(F)(F)F)nc(C(=O)Nc2cccc(CN)c2)n1 | > 99.5 µM | > 100 µM
NCc1cccc(Oc2ccc(S(=O)(=O)Nc3ccc(Cl)cc3C(=O)NCC(F)(F)F)cc2)c1 | > 99.5 µM | > 100 µM
NCc1cccc(NC(=O)[C@H]2COCC3(CCC3)O2)c1 | > 99.5 µM | > 100 µM
Brc1cnc(Sc2ncc[nH]2)nc1 | > 99.5 µM | > 100 µM
C[C@H]1CN(C)C[C@H](C(=O)Nc2cccc(CN)c2)O1 | > 99.5 µM | > 100 µM
NCc1cccc(NC(=O)c2cc(Cl)cc3[nH]ncc23)c1 | > 99.5 µM | > 100 µM
CC[C@@H](Cc1nnn[nH]1)c1ccc(NC(=O)c2cc(Cl)cc(NC(=O)OCc3ccccc3)c2)cc1 | 8.85 µM | 8.21 µM and 8.62 µM
O=C(Nc1cc(Cl)cc(C(=O)Nc2cccc(Cc3nn[nH]n3)c2)c1)OCc1ccccc1 | 22 µM | > 100 µM
CC(=O)NCc1cccc(NC(=O)c2cc(Cl)cc(NC(=O)OCc3ccccc3)c2)c1 | > 99.5 µM | > 100 µM
C=C(C)c1cccc([C@@H](NC(=O)OCc2ccccc2)C(=O)Nc2cccc(CN)c2)c1 | 30.1 µM | > 100 µM

Structure (SMILES) | IC50 (Genome polyprotein [1]) | IC50 (Genome polyprotein [2])
NCc1cccc(NC(=O)c2cccc3c2CCC3)c1 | > 99.5 µM | > 100 µM
CNCc1cc(Cl)cc(C(=O)Nc2cccc(CN)c2)c1 | > 99.5 µM | > 100 µM
NCCc1cccc(-c2cccc([C@@H](NC(=O)OCc3ccccc3)C(=O)Nc3cccc(CN)c3)c2)c1 | 33.6 µM | > 100 µM
NCc1cccc(NC(=O)[C@@H](NC(=O)OCc2ccccc2)c2cccc(-c3ccc(N)nc3)c2)c1 | > 99.5 µM | > 100 µM
CC(C)(C)OC(=O)NCc1cc(Br)cc(NC(=O)c2cc(Cl)cc(NC(=O)OCc3ccccc3)c2)c1 | > 99.5 µM | > 100 µM
CCc1cccc(NC(=O)[C@]2(Oc3ccc(Br)cc3)CCNC3(CC3)C2)c1 | > 99.5 µM | > 100 µM
C[C@@H](NCc1c[nH]c2ccccc12)c1cscn1 | > 99.5 µM | > 100 µM
NCc1cccc(NC(=O)c2cc(Br)cnc2OCC2CC2)c1 | > 99.5 µM | > 100 µM
NCc1cc(NS(=O)(=O)c2ccc(Oc3ccccc3Cl)cc2)ccc1Cl | > 99.5 µM | > 100 µM
CCn1ncc(-c2noc3nc(C)cc(C(=O)Nc4cccc(CN)c4)c23)c1C | > 99.5 µM | > 100 µM
NCc1cccc(NC(=O)[C@H]2CCc3nnc(C4CC4)n3C2)c1 | > 99.5 µM | > 100 µM
COc1ccc2c(c1)c(C(=O)Nc1cccc(CN)c1)c(C)n2C1CCCC1 | > 99.5 µM | > 100 µM
Cc1cc(Cl)cc(C(=O)Nc2cccc(CN)c2)n1 | > 99.5 µM | > 100 µM
CN1CC=C(c2cccc([C@@H](NC(=O)OCc3ccccc3)C(=O)Nc3cccc(CN)c3)c2)CC1 | > 99.5 µM | > 100 µM
NCc1cccc(NC(=O)c2cc(Cl)cc(CN3CCOCC3)c2)c1 | > 99.5 µM | > 100 µM
O=S(=O)(Cc1nnc(Cc2ccccc2)o1)c1ccc(O)cc1 | > 99.5 µM | > 100 µM
CCOc1cccc(-c2ccc(S(=O)(=O)Nc3cc(F)c(Cl)cc3C(=O)O)cc2)c1 | 5.09 µM | 7.19 µM
NCc1cc(Cl)cc(C(=O)Nc2ccc3c(c2)CNC3)c1 | > 99.5 µM | > 100 µM
OC[C@H](Cc1cccnc1)NCc1c[nH]c2ccccc12 | > 99.5 µM | > 100 µM
C[C@@H](N)c1cc(Cl)cc(C(=O)Nc2cccc(CN)c2)c1 | > 99.5 µM | > 100 µM
O=C(Nc1cc(Cl)cc(C(=O)Nc2cccc(-n3nn[nH]c3=O)c2)c1)OCc1ccccc1 | 11 µM and 11.4 µM | 8.66 µM and 9.23 µM
